Experimental data from US8071795B2, “HIF inhibitors” (Emory University, priority 2005, dated 2011).

What was measured:
[1] = test system: topoisomerase II; experiment: kinetoplast DNA decatenation assay; assay type: biochemical
Protocol: FIG. 15 illustrates that HIF inhibitor F2 (Psammaplin analogue) but not KCN1 inhibits topoisomerase II activity. Purified topo II activity with F2 or KCN1 was analyzed under normoxia using kDNA decatenation assay. To examine the activity, 1% agarose gel with ethidium bromide was used and it enabled to detect catenated kDNA and decatenated kDNA. In lanes 5 and 9, inhibition of topoisomerase II activity was detected as evidenced by the presence of catenated DNA.
Finally, an experiment focused on whether some of the HIF inhibitors might have an effect on topoisomerase function was performed. It has been reported in the literature that some HIF inhibitors may act via a topoisomerase-dependent mechanism (Rapisarda A et al 2004, Cancer Res 64-1475-82). KCN1 and psammaplin analogue F2 (FIG. 8) were tested and their inhibitory effect on topoisomerase II using a kinetoplast DNA decatenation assay (FIG. 15) was examined.

[2] = test system: HIF; experiment: microscopy of HIF location and HRE-luciferase activity in LN229 cells; assay type: cell-based, human
Description: To examine whether KCN1 might interfere with the ability of HIF to translocate to the nucleus, its location was examined by microscopy in LN229 cells containing a stably integrated HRE-luciferase reporter construct. Under hypoxia KCN1 inhibits HIF accumulation and no HIF is seen in the nucleus or cytoplasm. […] Measurement of HIF-induced luciferase activity (lower panel) confirms that HIF is transcriptionally active in the presence of KCN1 in the COCl2 treated cells.
(§1) To gain insight into the possible mechanism of action of KCN1 a number of experiments listed below were performed. First, an experiment focused on whether KCN1 might block HIF at the mRNA or protein level was performed. To examine whether KCN1 might interfere with HIF-1 alpha mRNA synthesis or stability, Northern blots were performed. […] Second, an experiment focused on whether KCN1 might interfere with the ability of HIF to translocate to the nucleus was performed by examining its location by microscopy in LN229 cells. Under hypoxia KCN1 inhibits HIF accumulation, confirming the Western blot results and no HIF is seen in the nucleus or cytoplasm.
In addition, experiments focused on whether HIF present in the nucleus of the KCN1 and CoCl2 treated cells was transcriptionally active were performed. […]

[3] = test system: LN229 glioma xenograft; experiment: sc LN229 glioma xenograft growth; assay type: in vivo, nude mice
Protocol: FIG. 20 illustrates that KCN1 inhibits sc LN229 glioma xenograft growth. LN-229 (5×10^6) was implanted in both flanks of nude mice (8/group) and 1 week later started intraperitoneal injections of KCN1 (60 mg/kg; 5 days/week). FIG. 20(A) illustrates tumor volume over time as measured with a caliper.
(§2) KCN1 was formulated in Cremaphor/EtOH for mice delivery and determined empirically (i.e., without prior under-standing of its in vivo pharmacology) whether preliminary anti-tumorigenic effects could be observed. […] (up to 100 mg/kg) injected animals.

[4] = tolerability in injected animals; assay type: in vivo; details: it. and iv. (up to 100 mg/kg)
Protocol: as §2

[5] = experimental LogP; assay type: physicochemical
Description: Four grams of KCN1 have been synthesized for initial PK and anti-tumor studies. FIG. 10 illustrates an illustrative embodiment of a method for forming KCN1.

[6] = test system: HIF-dependent luciferase activity; experiment: pharmacodynamic BLI study in LN229 HRE-luciferase glioma xenografts; assay type: in vivo, mouse
Protocol: FIG. 19 illustrates a pharmacodynamic study of KCN1 in nu/nu mouse bearing LN229HRE-luci-ferase gliomas. KCN1 (2 mg) dissolved in DMSO was injected in the right hind tumor, and DMSO control in the left hind tumor. The mouse was injected with D-luciferin and imaged by BLI before FIG. 19 (C) and 5 & 28 hrs after injection. It should be noted strong reduction in HIF-dependent luciferase activity in right hind tumor at 5 hrs and partial recovery of HIF signaling after 28 hrs. (n=2).
It is well appreciated that the efficacy of anti-cancer agents in rodents is an imprecise predictor of the success of these drugs in clinical trials. Therefore, evaluating the molecular and mechanistic end points of drug treatment is an important complementary approach to early pre-clinical studies. With this in mind, we sought to determine whether our lead HIF-1 pathway inhibitor (KCN1) can reduce HIF activity in a glioma xenograft model. In a pilot study, we used a mouse bearing 4 xenografts of LN229 cells containing a stable HIF responsive luciferase reporter (size-matched medium sized tumors in the back and small ones in the front). The HIF-dependent luciferase activity in the tumors was detected by non-invasive BLI. As expected, the larger hind tumors produced the strongest luciferase signal, likely due to the increase in the hypoxic volume. […]

[7] = test system: Akt (Serine 473 phosphorylation), PI3K signaling pathway; experiment: Akt phosphorylation in response to IGF1; assay type: cell-based; details: 1, 3, and 6 hrs
Protocol: In addition, experiments focused on whether HIF present in the nucleus of the KCN1 and CoCl2 treated cells was transcriptionally active were performed. […] Third, an experiment focused on whether KCN1 might interfere with HIF synthesis through the PI3 kinase/Akt/mTOR pathway that controls mRNA translation was performed. The effects of KCN1 on the phosphorylation of Akt in response to growth factor IGF1 (insulin growth factor 1) were examined. […] This finding might have therapeutic implications independently of the activities of KCN1 on HIF.

[8] = test system: HIF-1 alpha mRNA; experiment: Northern blot of HIF-1 alpha mRNA; assay type: cell-based; details: with or without KCN1 treatment
Protocol: To examine whether KCN1 might interfere with mRNA synthesis or stability Northern blots were performed.
as §1

[9] = test system: phospho-proteins involved in key cell signaling pathways; experiment: multiplex Western (Kinexus) of phospho-proteins in LN229 cell extracts; assay type: cell-based, human; details: 27 of 37 phospho-proteins
Protocol: (§3) FIG. 11 illustrates an analysis of specificity of KCN1. LN229 cells were pre-treated with KCN1 (25 uM) for 1 h and then put in 1% O2 for […]. Cell extracts were analyzed by Western blot for levels of total proteins (FIG. 11 (A)) and phospho-proteins by multiplex Western FIG. 11 (B)). It should be noted that a strong increase of HIF-1α levels under hypoxia is inhibited by KCN1.
(§4) The above extracts were further analyzed to detect changes in the activity states of key signal transduction proteins by multiplex Western (Kinexus). This method allows the simultaneous screening of 37 different phospho-proteins involved in key cell signaling pathways. […] KCN1 inhibits only HIF-1α under hypoxic conditions (FIG. 11 (C)).

[10] = molecular target: HIF-1/HRE pathway; experiment: LN229-HRE-AP hypoxia-inducible alkaline phosphatase reporter bioassay; assay type: cell-based, human
Protocol: Genetically engineered LN229 cells (a human glioma cell line) which stably express the alkaline phosphatase reporter gene under the control of six copies of a hypoxia-responsive element was used to identify small-molecule inhibitors of the HIF-1/HRE pathway. The engineered LN229 cell line is disclosed in U.S. Provisional Patent Application No. 60/235,283, which is incorporated by reference in its entirety herein. Cells were seeded at 40,000 cells per well in 96-well plates. Compounds of interest with 2,2-dimethylbenzopyran motifs were added and the plates were incubated under hypoxia (1% O2, 5% CO2 and 94% N2) at 37° C. for 24 h. Cells were then washed with phosphate-buffered saline and incubated with p-nitrophenyl phosphate at 37° C. for 30 min. The reaction was terminated by adding 3 N NaOH and the plates were read for absorbance at 405 nm. The anti-HIF-1/HRE activity of each compound was quantified as the decrease of percentage of alkaline phosphatase (AP) activity compared to the untreated control cells. […]
To screen for small molecule HIF-1 pathway inhibitors, a cell-based assay was established by stably transfecting a glioma cell line with a hypoxia-inducible alkaline phosphatase (AlkPhos) expression vector (LN229-HRE-AP). Exposure of the cells to hypoxia (1% O2) induced reporter gene expression, which could be detected and quantitated by a […] reaction. […]

[11] = test system: HIF-1α; experiment: Western blot of total protein levels in LN229 cell extracts; assay type: cell-based, human
Protocol: as §3, §4

[12] = PK study in U87MG-EGFRvIII brain tumor model, HPLC; assay type: in vivo, mice; details: iv. 35 mg/kg; 6, 18 and 24 hrs
Protocol: FIG. 18 illustrates a PK study of KCN1 in a brain tumor model. FIG. 18(A) illustrates MRI of U87MG-EGFRvIII grown in mice brain. FIG. 18(B) illustrates the kinetics of KCN1 accumulation in normal and tumoral brain after iv. injection at 35 mg/kg.
The BBB may constitute an obstacle to drug delivery. To examine whether KCN1 would reside in the brain over a longer period of time and whether it would accumulate in higher amounts in the tumor versus normal brain we carried out a preliminary PK experiment. Nude mice carrying U87MG-EGFRvIII tumors were injected iv. with KCN1 and sacrificed at 6, 18 and 24 hrs. KCN1 concentration in the brain tumor and contra-lateral normal brain was performed by HPLC.

## COc1cc([C@@H]2c3cc4c(cc3[C@@H](O[C@@H]3O[C@@H]5CO[C@@H](C)O[C@H]5[C@H](O)[C@H]3O)[C@H]3COC(=O)[C@H]23)OCO4)cc(OC)c1O [etoposide, reference compound]
[1]; 100 uM
  topo II activity: inhibitory activity observed

## COc1ccc(S(=O)(=O)N(Cc2ccc3c(c2)C=CC(C)(C)O3)c2ccccc2)cc1OC [KCN1]
[2]; KCN1 and CoCl2 treated cells
  luciferase activity of HRE-luciferase reporter: remained active
[2]; LN229 cells, CoCl2 conditions
  nuclear accumulation of HIF: does not interfere with nuclear accumulation
[3]; 60 mg/kg intraperitoneal, 5 days/week, at termination
  weight of dissected tumors, fold less than control: ~6 fold
[3]; Cremaphor/EtOH formulation
  tumor growth: strong and sustained inhibition of tumor growth
[4]
  toxicity: no apparent toxicity was observed
[1]; 5-25 uM
  topo II activity: did not inhibit
[5]
  experimental LogP: 3.9
[6]; 2 mg in DMSO intratumoral, 5 hrs
  reduction of HIF-dependent luciferase activity in injected tumor: > 90%
[6]; after 28 h
  HIF-dependent luciferase activity in injected tumor: recovered
[7]
  IGF1-induced phosphorylation of Akt on Serine 473: not inhibited
  phospho-Akt level: increase in phospho-Akt is observed
[8]
  HIF-1alpha mRNA levels: remained constant
[9]
  effects on phospho-proteins with detectable phosphorylation: < 1.5 fold
[10]; LN229-HRE-AP cells, hypoxia 1% O2
  IC50: ~4 µM
[10]; SAR, modifications in regions I and II
  inhibitory activity relative to initial HIF-inhibitor 85D5R: improved acitivities
[11]; LN229 cells, KCN1 25 uM, 1% O2, 5 hrs
  HIF-1α protein level under hypoxia: strong anti-HIF-1α activity is detected
[11]; induced by CoCl2, desferroxiamine or MG132
  stabilization of HIF-1alpha under normoxia: is not inhibited
[12]
  distribution between brain tumor and contra-lateral normal brain: preferentially accumulates in and is retained in the brain tumor
